Test results from ChEMBL document CHEMBL4052645, “Discovery of potent and efficacious pyrrolopyridazines as dual JAK1/3 inhibitors” (Bioorg Med Chem Lett, 2017).

What was measured:
[1] = target: Non-receptor tyrosine-protein kinase TYK2 (Homo sapiens, UniProt P29597); assay: Inhibition of His-tagged TYK2 (unknown origin) after 3 hrs by Caliper assay
[2] = target: Dual specificity mitogen-activated protein kinase kinase 2 (Homo sapiens) (UniProt P36507); assay: Inhibition of wild-type human full length MAP2K2 (M1 to V400 residues) expressed in mammalian expression system assessed as residual activity at 50 nM by Kinomescan method relative to control
[3] = target: Mitogen-activated protein kinase 11 (Homo sapiens) (UniProt Q15759); assay: Inhibition of wild-type human full length p38-beta (M1 to Q364 residues) expressed in bacterial expression system assessed as residual activity at 50 nM by Kinomescan method relative to control
Chain of Mitogen-activated protein kinase 11 (Homo sapiens) (Q15759 whole entry, the tested form may be a part): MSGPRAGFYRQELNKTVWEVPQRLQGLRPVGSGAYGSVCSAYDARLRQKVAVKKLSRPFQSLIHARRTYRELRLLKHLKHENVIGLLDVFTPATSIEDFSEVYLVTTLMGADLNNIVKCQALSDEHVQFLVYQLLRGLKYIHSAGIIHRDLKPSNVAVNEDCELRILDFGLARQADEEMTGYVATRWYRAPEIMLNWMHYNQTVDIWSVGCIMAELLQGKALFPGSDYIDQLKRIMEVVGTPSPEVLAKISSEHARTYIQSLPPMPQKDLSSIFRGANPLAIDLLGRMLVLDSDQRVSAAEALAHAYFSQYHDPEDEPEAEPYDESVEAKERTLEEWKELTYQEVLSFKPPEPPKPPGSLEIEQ

[4] = target: LIM domain kinase 1 (Homo sapiens) (UniProt P53667); assay: Inhibition of wild-type human full length LIMK1 (M1 to D647 residues) expressed in bacterial expression system assessed as residual activity at 50 nM by Kinomescan method relative to control
[5] = tested on: Phosphatidylinositol 4,5-bisphosphate 3-kinase catalytic subunit alpha isoform (Homo sapiens), P42336 [M1043I]; assay: Inhibition of human partial length PIK3CA M1043I mutant (R108 to N1068 residues) expressed in mammalian expression system assessed as residual activity at 50 nM by Kinomescan method relative to control
[6] = target: Serine/threonine-protein kinase Nek11 (Homo sapiens) (UniProt Q8NG66); assay: Inhibition of wild-type human partial length NEK11 (M1 to E313 residues) expressed in mammalian expression system assessed as residual activity at 50 nM by Kinomescan method relative to control
Chain of Serine/threonine-protein kinase Nek11 (Homo sapiens) (Q8NG66 whole entry, the tested form may be a part): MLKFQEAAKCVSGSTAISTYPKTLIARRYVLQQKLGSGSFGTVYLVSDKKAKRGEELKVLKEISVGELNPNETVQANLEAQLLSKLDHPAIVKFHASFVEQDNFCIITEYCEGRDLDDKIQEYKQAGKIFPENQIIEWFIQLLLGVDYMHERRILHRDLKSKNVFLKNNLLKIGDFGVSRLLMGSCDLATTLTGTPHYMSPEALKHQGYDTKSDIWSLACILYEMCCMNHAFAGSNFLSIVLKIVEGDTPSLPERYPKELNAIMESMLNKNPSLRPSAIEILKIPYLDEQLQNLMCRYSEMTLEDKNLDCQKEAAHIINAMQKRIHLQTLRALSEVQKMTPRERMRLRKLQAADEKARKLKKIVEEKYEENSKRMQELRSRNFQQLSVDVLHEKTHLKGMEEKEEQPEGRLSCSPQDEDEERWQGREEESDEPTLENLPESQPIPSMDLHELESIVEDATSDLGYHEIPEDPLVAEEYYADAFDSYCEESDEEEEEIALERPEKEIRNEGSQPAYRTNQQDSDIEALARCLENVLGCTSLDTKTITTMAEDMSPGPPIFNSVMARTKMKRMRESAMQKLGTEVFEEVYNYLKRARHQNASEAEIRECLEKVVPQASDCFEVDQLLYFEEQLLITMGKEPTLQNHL

[7] = target: Serine/threonine-protein kinase MAK (Homo sapiens) (UniProt P20794); assay: Inhibition of wild-type human partial length MAK (M1 to P314 residues) expressed in bacterial expression system assessed as residual activity at 50 nM by Kinomescan method relative to control
[8] = target: Serine/threonine-protein kinase PLK1 (Homo sapiens) (UniProt P53350); assay: Inhibition of wild-type human partial length PLK1 (A33 to F325 residues) expressed in mammalian expression system assessed as residual activity at 50 nM by Kinomescan method relative to control
[9] = target: Interferon-induced, double-stranded RNA-activated protein kinase (Homo sapiens) (UniProt P19525); assay: Inhibition of wild-type human partial length PKR (F247 to C551 residues) expressed in bacterial expression system assessed as residual activity at 50 nM by Kinomescan method relative to control
[10] = target: Homeodomain-interacting protein kinase 2 (Homo sapiens) (UniProt Q9H2X6); assay: Inhibition of wild-type human partial length HIPK2 (M153 to S564 residues) expressed in mammalian expression system assessed as residual activity at 50 nM by Kinomescan method relative to control
Chain of Homeodomain-interacting protein kinase 2 (Homo sapiens) (Q9H2X6 whole entry, looked up, the tested form may be a part): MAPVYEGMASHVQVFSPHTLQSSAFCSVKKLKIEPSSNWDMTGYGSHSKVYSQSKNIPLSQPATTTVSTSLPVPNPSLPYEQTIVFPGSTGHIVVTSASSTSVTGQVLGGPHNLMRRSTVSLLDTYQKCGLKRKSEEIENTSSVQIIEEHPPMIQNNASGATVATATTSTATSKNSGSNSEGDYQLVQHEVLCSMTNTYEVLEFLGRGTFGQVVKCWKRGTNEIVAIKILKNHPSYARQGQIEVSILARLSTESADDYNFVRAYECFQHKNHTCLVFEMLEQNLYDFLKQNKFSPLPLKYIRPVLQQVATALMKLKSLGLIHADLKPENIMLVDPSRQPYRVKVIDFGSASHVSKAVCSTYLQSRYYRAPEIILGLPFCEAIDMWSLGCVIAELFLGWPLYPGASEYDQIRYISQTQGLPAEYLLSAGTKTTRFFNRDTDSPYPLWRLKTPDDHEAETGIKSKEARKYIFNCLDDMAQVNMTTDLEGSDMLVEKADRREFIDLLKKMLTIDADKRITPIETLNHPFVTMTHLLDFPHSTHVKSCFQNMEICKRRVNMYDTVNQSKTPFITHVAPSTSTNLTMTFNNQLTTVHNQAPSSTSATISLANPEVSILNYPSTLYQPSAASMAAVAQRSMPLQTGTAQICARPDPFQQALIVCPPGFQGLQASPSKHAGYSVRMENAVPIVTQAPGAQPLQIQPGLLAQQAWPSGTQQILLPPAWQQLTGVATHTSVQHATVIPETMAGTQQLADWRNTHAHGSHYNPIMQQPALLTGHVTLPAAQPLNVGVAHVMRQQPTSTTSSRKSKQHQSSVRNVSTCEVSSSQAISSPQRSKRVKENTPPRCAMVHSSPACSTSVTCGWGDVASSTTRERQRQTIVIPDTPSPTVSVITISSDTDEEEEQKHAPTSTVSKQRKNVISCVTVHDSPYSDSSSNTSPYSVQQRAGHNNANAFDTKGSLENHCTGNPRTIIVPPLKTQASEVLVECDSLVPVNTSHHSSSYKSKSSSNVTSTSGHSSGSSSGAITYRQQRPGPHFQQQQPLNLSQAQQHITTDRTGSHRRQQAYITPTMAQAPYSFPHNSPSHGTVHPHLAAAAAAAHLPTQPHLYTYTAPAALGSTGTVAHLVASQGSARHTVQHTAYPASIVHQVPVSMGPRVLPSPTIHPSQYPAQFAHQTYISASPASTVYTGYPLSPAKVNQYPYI

[11] = target: Serine/threonine-protein kinase ULK3 (Homo sapiens) (UniProt Q6PHR2); assay: Inhibition of wild-type human partial length ULK3 (M1 to Q290 residues) expressed in mammalian expression system assessed as residual activity at 50 nM by Kinomescan method relative to control
[12] = target: Testis-specific serine/threonine-protein kinase 1 (Homo sapiens) (UniProt Q9BXA7); assay: Inhibition of wild-type human full length TSSK1B (M1 to Q367 residues) expressed in bacterial expression system assessed as residual activity at 50 nM by Kinomescan method relative to control
[13] = target: SRSF protein kinase 3 (Homo sapiens) (UniProt Q9UPE1); assay: Inhibition of wild-type human partial length MSSK1 (P41 to P567 residues) expressed in bacterial expression system assessed as residual activity at 50 nM by Kinomescan method relative to control
[14] = target: Death-associated protein kinase 3 (Homo sapiens) (UniProt O43293); assay: Inhibition of wild-type human partial length DAPK3 (M1 to A277 residues) expressed in bacterial expression system assessed as residual activity at 50 nM by Kinomescan method relative to control
[15] = target: Serine/threonine-protein kinase 32C (Homo sapiens) (UniProt Q86UX6); assay: Inhibition of wild-type human partial length YANK3 (M68 to G486 residues) expressed in bacterial expression system assessed as residual activity at 50 nM by Kinomescan method relative to control
[16] = target: Leucine-rich repeat serine/threonine-protein kinase 2 (Homo sapiens) (UniProt Q5S007); assay: Inhibition of wild-type human partial length LRRK2 (H970 to E2527 residues) expressed in mammalian expression system assessed as residual activity at 50 nM by Kinomescan method relative to control
[17] = target: Serine/threonine-protein kinase SIK1 (Homo sapiens) (UniProt P57059); assay: Inhibition of wild-type human partial length SIK (M1 to Y304 residues) expressed in bacterial expression system assessed as residual activity at 50 nM by Kinomescan method relative to control
[18] = target: Serine/threonine-protein kinase ICK (Homo sapiens) (UniProt Q9UPZ9); assay: Inhibition of wild-type human partial length ICK (M1 to P314 residues) expressed in mammalian expression system assessed as residual activity at 50 nM by Kinomescan method relative to control
Chain of Serine/threonine-protein kinase ICK (Homo sapiens) (Q9UPZ9 whole entry, the tested form may be a part): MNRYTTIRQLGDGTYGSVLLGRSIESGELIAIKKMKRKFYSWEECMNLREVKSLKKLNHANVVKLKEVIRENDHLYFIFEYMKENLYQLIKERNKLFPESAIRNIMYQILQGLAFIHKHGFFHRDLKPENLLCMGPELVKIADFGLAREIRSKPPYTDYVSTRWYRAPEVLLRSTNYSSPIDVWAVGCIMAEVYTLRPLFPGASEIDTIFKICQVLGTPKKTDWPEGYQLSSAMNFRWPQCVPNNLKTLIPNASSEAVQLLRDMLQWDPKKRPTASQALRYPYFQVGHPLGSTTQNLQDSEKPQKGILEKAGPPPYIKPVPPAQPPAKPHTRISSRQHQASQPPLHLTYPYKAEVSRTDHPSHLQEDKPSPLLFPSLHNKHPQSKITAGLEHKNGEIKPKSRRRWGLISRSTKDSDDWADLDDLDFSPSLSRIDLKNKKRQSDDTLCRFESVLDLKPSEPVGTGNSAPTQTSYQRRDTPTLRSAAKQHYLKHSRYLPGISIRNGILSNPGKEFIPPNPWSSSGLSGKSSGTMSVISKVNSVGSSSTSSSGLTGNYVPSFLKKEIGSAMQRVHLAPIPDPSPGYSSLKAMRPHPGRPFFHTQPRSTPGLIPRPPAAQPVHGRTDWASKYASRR

[19] = target: Macrophage colony-stimulating factor 1 receptor (Homo sapiens) (UniProt P07333); assay: Inhibition of wild-type human partial length FMS (I564 to S939 residues) expressed in bacterial expression system assessed as residual activity at 50 nM by Kinomescan method relative to control
[20] = target: Myotonin-protein kinase (Homo sapiens) (UniProt Q09013); assay: Inhibition of human DMPK1 (V47 to N415 residues) expressed in bacterial expression system assessed as residual activity at 50 nM by KINOMEscan assay relative to control
Chain of Myotonin-protein kinase (Homo sapiens) (Q09013 whole entry, the tested form may be a part): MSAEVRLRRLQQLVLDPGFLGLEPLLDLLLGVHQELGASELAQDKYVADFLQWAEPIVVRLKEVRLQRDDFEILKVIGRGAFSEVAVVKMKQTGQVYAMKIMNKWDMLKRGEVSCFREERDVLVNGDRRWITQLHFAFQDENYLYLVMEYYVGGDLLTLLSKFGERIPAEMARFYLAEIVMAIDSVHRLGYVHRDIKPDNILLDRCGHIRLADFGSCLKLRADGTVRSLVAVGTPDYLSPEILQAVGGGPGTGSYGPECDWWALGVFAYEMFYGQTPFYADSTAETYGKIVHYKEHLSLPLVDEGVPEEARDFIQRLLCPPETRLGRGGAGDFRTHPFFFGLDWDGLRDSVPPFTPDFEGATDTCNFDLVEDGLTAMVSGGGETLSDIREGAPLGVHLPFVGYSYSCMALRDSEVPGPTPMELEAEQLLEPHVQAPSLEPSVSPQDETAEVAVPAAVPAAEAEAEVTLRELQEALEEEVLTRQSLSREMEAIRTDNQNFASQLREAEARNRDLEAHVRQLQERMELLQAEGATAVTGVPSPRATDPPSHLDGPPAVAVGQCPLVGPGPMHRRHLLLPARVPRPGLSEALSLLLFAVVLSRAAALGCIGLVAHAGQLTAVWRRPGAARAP

[21] = target: Mitogen-activated protein kinase kinase kinase 13 (Homo sapiens) (UniProt O43283); assay: Inhibition of wild-type human full length LZK (M1 to W966 residues) expressed in mammalian expression system assessed as residual activity at 50 nM by Kinomescan method relative to control
[22] = target: Ribosomal protein S6 kinase alpha-5 (Homo sapiens) (UniProt O75582); assay: Inhibition of wild-type human partial length C-terminal MSK1 kinase domain 2 (V390 to T718 residues) expressed in bacterial expression system assessed as residual activity at 50 nM by Kinomescan method relative to control
[23] = target: Bone morphogenetic protein receptor type-1A (Homo sapiens) (UniProt P36894); assay: Inhibition of wild-type human partial length BMPR1A (Q214 to I532 residues) expressed in bacterial expression system assessed as residual activity at 50 nM by Kinomescan method relative to control
[24] = target: Tyrosine-protein kinase receptor UFO (Homo sapiens) (UniProt P30530); assay: Inhibition of wild-type human partial length AXL (R497 to Y821 residues) expressed in bacterial expression system assessed as residual activity at 50 nM by Kinomescan method relative to control
[25] = target: Serine/threonine-protein kinase Nek1 (Homo sapiens) (UniProt Q96PY6); assay: Inhibition of wild-type human partial length NEK1 (M1 to K278 residues) expressed in bacterial expression system assessed as residual activity at 50 nM by Kinomescan method relative to control
Chain of Serine/threonine-protein kinase Nek1 (Homo sapiens) (Q96PY6 whole entry, the tested form may be a part): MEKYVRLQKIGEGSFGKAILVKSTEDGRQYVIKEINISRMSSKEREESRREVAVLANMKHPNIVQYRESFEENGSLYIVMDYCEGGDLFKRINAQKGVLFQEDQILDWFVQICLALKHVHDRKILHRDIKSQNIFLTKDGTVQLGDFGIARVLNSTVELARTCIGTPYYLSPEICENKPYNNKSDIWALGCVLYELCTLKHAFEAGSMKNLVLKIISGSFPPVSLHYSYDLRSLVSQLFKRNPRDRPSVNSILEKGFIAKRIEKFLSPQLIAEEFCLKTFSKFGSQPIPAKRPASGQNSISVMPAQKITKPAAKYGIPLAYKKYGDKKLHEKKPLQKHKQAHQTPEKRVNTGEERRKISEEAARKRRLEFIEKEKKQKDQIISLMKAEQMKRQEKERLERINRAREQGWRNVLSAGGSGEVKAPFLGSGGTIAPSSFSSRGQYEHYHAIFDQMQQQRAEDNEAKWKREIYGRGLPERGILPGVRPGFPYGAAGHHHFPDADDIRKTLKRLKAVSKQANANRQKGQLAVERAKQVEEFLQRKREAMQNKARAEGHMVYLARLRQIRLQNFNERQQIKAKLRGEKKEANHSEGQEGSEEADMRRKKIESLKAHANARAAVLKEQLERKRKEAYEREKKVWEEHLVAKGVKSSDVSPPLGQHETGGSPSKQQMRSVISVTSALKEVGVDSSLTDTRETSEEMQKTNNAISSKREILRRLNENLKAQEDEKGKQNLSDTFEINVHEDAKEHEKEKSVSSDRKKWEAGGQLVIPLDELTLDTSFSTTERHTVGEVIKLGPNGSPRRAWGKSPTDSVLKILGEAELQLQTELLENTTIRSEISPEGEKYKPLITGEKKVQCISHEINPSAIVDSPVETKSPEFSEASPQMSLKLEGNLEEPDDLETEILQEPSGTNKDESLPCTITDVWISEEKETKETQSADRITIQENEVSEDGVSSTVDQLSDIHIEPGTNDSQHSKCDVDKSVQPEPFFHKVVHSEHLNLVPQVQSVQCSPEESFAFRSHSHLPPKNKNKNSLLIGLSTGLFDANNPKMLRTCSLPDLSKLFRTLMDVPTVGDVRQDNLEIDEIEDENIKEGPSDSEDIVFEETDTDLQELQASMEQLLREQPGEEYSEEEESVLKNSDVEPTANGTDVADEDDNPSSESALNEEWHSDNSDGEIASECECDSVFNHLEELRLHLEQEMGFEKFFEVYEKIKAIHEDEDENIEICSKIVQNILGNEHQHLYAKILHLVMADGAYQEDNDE

Question: With `CC1(C)[C@H](Nc2c(C(N)=O)cnn3cc(-c4ccccc4)cc23)CC[C@]1(C)N` as the compound, how does the IC50 [1] read?
Answer: Its IC50 is 7.5 nM.

Question: What about the Activity [2] of the same compound?
Answer: Its Activity is 84%.

Question: And the Activity [3]?
Answer: The Activity was 78%.

Question: What about the Activity [4] of the same compound?
Answer: The Activity was 67%.

Question: And the Activity [5]?
Answer: Its Activity is 66%.

Question: What about the Activity [6] of the same compound?
Answer: The Activity was 87%.

Question: What about the Activity [7] of the same compound?
Answer: Its Activity is 100%.

Question: And the Activity [8]?
Answer: The Activity was 94%.

Question: What about the Activity [9] of the same compound?
Answer: The Activity was 100%.

Question: And the Activity [10]?
Answer: The Activity was 97%.

Question: What about the Activity [11] of the same compound?
Answer: Its Activity is 100%.

Question: What about the Activity [12] of the same compound?
Answer: Its Activity is 100%.

Question: And the Activity [13]?
Answer: The Activity was 56%.

Question: What about the Activity [14] of the same compound?
Answer: Its Activity is 90%.

Question: What about the Activity [15] of the same compound?
Answer: The Activity was 100%.

Question: What about the Activity [16] of the same compound?
Answer: The Activity was 21%.

Question: And the Activity [17]?
Answer: The Activity was 80%.

Question: What about the Activity [18] of the same compound?
Answer: The Activity was 64%.

Question: What about the Activity [19] of the same compound?
Answer: The Activity was 57%.

Question: And the Activity [20]?
Answer: Its Activity is 2.8%.

Question: What about the Activity [21] of the same compound?
Answer: The Activity was 93%.

Question: What about the Activity [22] of the same compound?
Answer: Its Activity is 95%.

Question: What about the Activity [23] of the same compound?
Answer: Its Activity is 100%.

Question: What about the Activity [24] of the same compound?
Answer: The Activity was 90%.

Question: What about the Activity [25] of the same compound?
Answer: The Activity was 100%.

Question: How did the IC50 [1] turn out when `COc1ccc(-c2cc3c(N[C@@H]4CC[C@](C)(N)C4(C)C)c(C(N)=O)cnn3c2)cn1` was run?
Answer: Its IC50 is 25 nM.

Question: What about the Activity [2] of the same compound?
Answer: Its Activity is 100%.

Question: And the Activity [3]?
Answer: Its Activity is 80%.

Question: What about the Activity [4] of the same compound?
Answer: Its Activity is 100%.

Question: What about the Activity [5] of the same compound?
Answer: Its Activity is 100%.

Question: What about the Activity [6] of the same compound?
Answer: The Activity was 99%.

Question: What about the Activity [7] of the same compound?
Answer: The Activity was 100%.

Question: What about the Activity [8] of the same compound?
Answer: Its Activity is 100%.

Question: And the Activity [9]?
Answer: The Activity was 99%.

Question: What about the Activity [10] of the same compound?
Answer: Its Activity is 100%.

Question: And the Activity [11]?
Answer: Its Activity is 100%.

Question: And the Activity [12]?
Answer: The Activity was 100%.

Question: What about the Activity [13] of the same compound?
Answer: The Activity was 100%.

Question: And the Activity [14]?
Answer: Its Activity is 97%.

Question: And the Activity [15]?
Answer: Its Activity is 100%.

Question: And the Activity [16]?
Answer: The Activity was 25%.

Question: And the Activity [17]?
Answer: The Activity was 96%.

Question: What about the Activity [18] of the same compound?
Answer: Its Activity is 100%.

Question: What about the Activity [19] of the same compound?
Answer: Its Activity is 74%.

Question: What about the Activity [20] of the same compound?
Answer: The Activity was 38%.

Question: And the Activity [21]?
Answer: Its Activity is 90%.

Question: And the Activity [22]?
Answer: The Activity was 100%.

Question: And the Activity [23]?
Answer: Its Activity is 100%.

Question: What about the Activity [24] of the same compound?
Answer: The Activity was 96%.

Question: What about the Activity [25] of the same compound?
Answer: The Activity was 92%.
